Patent US20070207123A1, “Amelioration of effects of cigarette smoke” (priority 2002, published 2007)
Marks after values point to notes of the source that are not given here.

What was measured:
[1] = test system: airway epithelium and basement membranes of SSCS-exposed mice; test: Electron microscopy of lung airway after SSCS exposure; format: in vivo, mouse (C57B1/6)
Procedure: Mice were exposed to side-stream cigarette smoke as previously described (23). […] The cigarette was lit, placed upright in a ring clamp and the smoke was directed into a funnel for distribution through the chamber (at a concentration designed to simulate human exposure in a smokey bar).
The Substance P (SP) agonist, [Sar^9, Met (O2)^11-substance P] was obtained from Sigma Chemicals (St. Louis, Mo.) and used after reconstitution in sterile saline.
(§1) Mice were treated with the SP analog [Sar^9, Met (O2)^11-substance P] for 15 minutes at the indicated doses following the cigarette smoke exposures as previously described (7, 10). Other than the genetically engineered SP experiments, all SP treatments were by the aerosol route using the previously described exposure chambers.
The lungs were prepared for morphometric study by injection of half-strength Kamovsky's Fluid into a major artery at a constant pressure of 20 cm H2O for 1 h at room temperature. The fixed tissue was then tied off at the artery with #4 suture. The Pathology Core Laboratories of the Southwestern Environmental Health Science Center evaluated the fixed tissue for pathological changes. The fixed tissues were sliced, dehydrated and post-fixed in osmium tetroxide, dehydrated and embedded in Epon-Araldite for high-resolution electron microscopy. Thin sections were cut from the embedded tissue with a diamond knife, mounted on 200 um copper mesh grids, and doubly stained with lead citrate and uranyl acetate. The tissue was viewed and photographed using a Phillips CM12 electron microscope (maximum magnification of 19,000×) (21).
Animals were exposed to SSCS for 45 min/day for 7 days from 1R4 standard research cigarettes (cigarette is lit and then placed upright in a ring clamp and the smoke is directed into a funnel for distribution through our exposure chamber) at a concentration designed to simulate a “smokey bar” scenario for human exposure to sidestream cigarette smoke. The sidestream cigarette smoke is considered highly toxic, even compared to the mainstream cigarette smoke that a human smoker inhales, due to the low combustion temperature of the smoldering cigarette. Subsequent to the exposures, some mice were treated with 1 uM-aerosolized SP for 15 minutes. At the end of one week the animals were sacrificed and lungs removed for electron microscopic analysis. […] The structure of the airway is characterized by airway epithelial cells anchored to a basement membrane. Another basement membrane serves as the anchor for the airway endothelial cells. The SSCS electron micrograph is characterized by swelling in both basement membrane areas of the airway structure and loss of cilia on the surface of the airway epithelium. […]

[2] = test system: B16 tumor cells; test: Experimental lung metastasis model, aerosolized SP; format: in vivo, mouse (B6); details: for #Tumors/2 Lungs: mean +/− SD; for % Change in #Tumors/2 Lungs: vs B16 alone
Procedure: as §1
B16 tumor cells (H-2^b) were obtained from the American Type Cell Collection (ATCC) and grown in DMEM media (Sigma, St. Louis, Mo.) supplemented with 10% fetal bovine serum (Hyclone, Colo.), antibiotics, nonessential amino acids and glutamine as. Cells in log growth were used for all experiments. An experimental lung metastasis model was utilized in which B16 tumor cells (0.5×10^6 cells in 100 ul saline) were injected intravenously into syngeneic B6 mice. At 7-10 days post-injection the animals were sacrificed and the visually prominent (black) tumors on the surface of both lungs were enumerated.
The Student's t-test was utilized to analyze the data presented. A p value of 0.05 (or lower) was used as a minimally significant difference.

[3] = test system: mice exposed to side-stream cigarette smoke (SSCS); test: Dynamic lung compliance after side-stream cigarette smoke (SSCS) exposure; format: in vivo, mouse (C57B1/6)
Procedure: C57B1/6 (B6, Jackson Labs) mice were utilized. Mice were used at an age of 8-12 weeks, 25-35 grams in weight. Female animals only were utilized. All animals were housed in the animal facility of the Dept. of Animal Resources at The University of Arizona Health Sciences Center. Animals were used in AAALAC-approved protocols.
Aerosolized exposures were performed using a DeVilbiss Ultra-Neb nebulizer (Model 099HD, Somerset, Pa.). Animals were exposed in a nose-only presentation while held in individual subject loading tubes similarly to that previously described (12). The tubes were nose cone-fitted to receiving adapters that originated from the common exposure chamber (volume 0.0027 m3, IN-TOX, Albuquerque, N. Mex.). […] Exposure concentration was determined by a seven-stage cascade impactor (IN-TOX) from changes in plate weights and measured immediately after each exposure. […]
Mice were anesthetized with ketamine hydrochloride (80 mg/kg), xylazine (10 mg/kg) and acepromazine maleate (3 mg/kg). […] Airflow was measured with a pneumotachograph (Fleisch #0000, Instrumentation Associates, New York, N.Y.) that was coupled to a differential pressure transducer (Validyne, Northridge, Calif.). […] These lung function parameters were measured with a modified PEDS-LAB (Medical Associated Services, Hatfield, Pa.) pulmonary function system. […]

[4] = test system: mononuclear cells of SSCS-exposed mice; test: Micronuclei formation in bone marrow and peripheral blood cells after SSCS exposure; format: in vivo, mouse (C57B1/6)
Procedure: Determination of micronuclei formation was made as described by Fenech (3). Briefly, animals were exposed to cigarette smoke ±SP treatment. Viable mononuclear cells were isolated from peripheral blood and bone marrow, stimulated with the mitogen PHA for 44 h, and treated with cytochalasin B for 28 h. Cytocentrifuge preparations were made, cells fixed and then analyzed at 1000× for micronuclei formation. At least 1000 cells were analyzed for each preparation.
Exposure to cigarette smoke results in genetic changes that can cause malignant cellular transformation (21, 22). Animals were exposed to SSCS as described above and sacrificed after 7 days. Viable mononuclear cells were isolated from peripheral blood and bone marrow, stimulated with the mitogen PHA for 44 h, and treated with cytochalasin B for 28 h. Cytocentrifuge preparations were made, cells fixed and then analyzed at 1000× for micronuclei formation. At least 1000 cells were analyzed from each preparation. […] Micronuclei formation in combination with damage of lung epithelia can result on pathological conditions such as emphysema and cancer (21).

[5] = test system: pulmonary alveolar macrophages (PAM); test: TNF-alpha secretion by pulmonary alveolar macrophages (ELISA); format: cell-based, rat (Fischer 344); details: overnight incubation, baseline 8.3 pg/ml per 1 × 10^6 cells, N 5
Procedure: Rat pulmonary alveolar macrophages (PAM) were isolated from pathogen-free male Fischer 344 rats (Harlan, Indianapolis, Ind.). The rats were anesthetized intramuscularly with ketamine HCL (80 mg/kg; Parke-Davis, Morris Plains, N.J.), xylazine (10 mg/kg; Mobay Corp., Shawnee, Kans.) and acepromazine maleate (3 mg/kg; Fermenta Animal Health Co., Kansas City, Mo.). A tracheostomy was performed, with the insertion of a Teflon #18 gauge catheter (Critikon, Tampa Bay, Fla.) as an endotracheal tube. The rats were killed by exsanguination of the abdominal aorta. The lungs were removed and lavaged with 3 ml aliquots of normal sterile saline warmed to 37 C for a total of 6 washes. The lavaged total cell numbers and PAM differentials were determined from a 0.2 ml sample by hemocytometer counting and cytocentrifuge preparation stained with Diff-Quik (Dade Diagnostics, Aguada, Puerto Rico), respectively. The remaining lavaged fluid was pooled and centrifuged at 400×g for 10 minutes to obtain a cell pellet. […] Cells were then counted using a standard hemocytometer and placed in 12 well plates at a density of 10^4 cells/ml. […]
TNF-alpha secretion by pulmonary alveolar macrophages (PAM) was measured by ELISA (R&D Systems, Minneapolis, Minn.) according to the manufacturer's instructions (25).

[6] = SSCS 45 min/day then 15 min aerosol dose, FIG. 2
[7] = SSCS + SP, 7 days, mean +/− SD, N 6

**Q.** For [Sar^9, Met (O2)^11-substance P] [SP], which “deterioration of the lung epithelium / basement membrane (electron microscopy)” value ([1]; SSCS 45 min/day 7 days, 1 uM aerosolized SP 15 min) is on record?
**A.** The value was “attenuated such deterioration of the lung epithelium”.

**Q.** What about the “airway basement membranes (electron micrograph)” value [1, 6] of the same substance?
**A.** The value was “normal appearance of airway basement membranes”.

**Q.** What about the “airway cilia (electron micrograph)” value [1, 6] of the same substance?
**A.** Its value is “normal cilia”.

**Q.** What about the “cell membrane between airway cells (electron micrograph)” value ([1]; SSCS 45 min/day then 15 min aerosol dose, FIG. 3) of the same substance?
**A.** The value was “identifiable cell membrane between airway cells”.

**Q.** What about the “inhibition of lung tumor formation” value ([2]; Experiments 1 to 3, aerosolized SP at the time of or after tumor induction) of the same substance?
**A.** Its value is 58-97%.

**Q.** And the “#Tumors/2 Lungs” value ([2]; Expt. 1: aerosolized SP at the time of tumor induction, N 4)?
**A.** Its value is 39 +/− 4*.

**Q.** What about the “% Change in #Tumors/2 Lungs” value ([2]; Expt. 1: aerosolized SP at the time of tumor induction) of the same substance?
**A.** The value was −63%.

**Q.** What about the “#Tumors/2 Lungs” value ([2]; Expt. 2: aerosolized SP at day 7 following tumor induction, N 4) of the same substance?
**A.** The value was 1 +/− 0.3*.

**Q.** And the “% Change in #Tumors/2 Lungs” value ([2]; Expt. 2: aerosolized SP at day 7 following tumor induction)?
**A.** The value was −97%.

**Q.** What about the “#Tumors/2 Lungs” value ([2]; Expt. 3: aerosolized SP at day 7 following tumor induction, N 8) of the same substance?
**A.** The value was 102 +/− 32*.

**Q.** What about the “% Change in #Tumors/2 Lungs” value ([2]; Expt. 3: aerosolized SP at day 7 following tumor induction) of the same substance?
**A.** The value was −58%.

**Q.** What about the “alterations in lung compliance due to SSCS” value ([3]; SP immediately after the smoke exposures) of the same substance?
**A.** Its value is “prevented/reversed”.

**Q.** What about the “Dynamic Lung Compliance” value ([3]; SSCS 45 min/day for 1 week, then 1 uM aerosolized SP for 15 min, mean +/− SEM, N 15) of the same substance?
**A.** Its value is 2.2 (0.02) ml · cm H2O^−1 · Kg^−1.

**Q.** And the “levels of micronuclei formation versus control animals” value ([4]; SP immediately after SSCS exposure, blood and bone marrow cells)?
**A.** The value was “comparable to control animals”.

**Q.** What about the “Percent Micronuclei, Blood” value [4, 7] of the same substance?
**A.** The value was 0.01 +/− 0.01* Percent.

**Q.** And the “Percent Micronuclei, Bone Marrow” value [4, 7]?
**A.** Its value is 0 +/− 0* Percent.

**Q.** And the “Fold-Increase TNFa” value ([5]; 8 nM SP)?
**A.** Its value is 3.2X.

**Q.** What about the “Fold-Increase TNFa” value ([5]; 1 uM SP) of the same substance?
**A.** Its value is 5.4X.
